From ChEMBL document CHEMBL1212738, “Phenotypic and genotypic characterization of Enterobacteriaceae with decreased susceptibility to carbapenems: results from large hospital-based surveillance studies in China” (2010)

Assays:
[1] = tested on: Klebsiella pneumoniae; test: Antimicrobial activity against carbapenem-resistant Klebsiella pneumoniae ZJ69 deficient in SHV-28, ompK35/36 by CLSI method; assay type: functional
[2] = tested on: Klebsiella pneumoniae; test: Antimicrobial activity against carbapenem-resistant Klebsiella pneumoniae ZJ70 deficient in KPC-2, SHV-11, CTX-M-14, ompK35/36 by CLSI method; assay type: functional
[3] = tested on: Enterobacter cloacae; test: Antimicrobial activity against carbapenem-resistant Enterobacter cloacae NJ89 deficient in CTX-M-14, ompC/F by CLSI method; assay type: functional
[4] = tested on: Klebsiella pneumoniae; test: Antimicrobial activity against carbapenem-resistant Klebsiella pneumoniae SZ61 deficient in TEM-1, SHV-1a, CMY-2, ompK35/36 by CLSI method; assay type: functional
[5] = tested on: Klebsiella pneumoniae; test: Antimicrobial activity against Klebsiella pneumoniae WH77 expressing IMP-4, TEM-1, SHV-14, CTX-M-3, qnrS1 by CLSI method; assay type: functional
[6] = tested on: Escherichia coli; test: Antimicrobial activity against Escherichia coli ZJ87T expressing KPC-2 by CLSI method; assay type: functional
[7] = tested on: Klebsiella pneumoniae; test: Antimicrobial activity against carbapenem-resistant Klebsiella pneumoniae PU8 deficient in SHV-11, DHA-1, aac(6')-Ib-cr, ompK35/36 by CLSI method; assay type: functional
[8] = tested on: Escherichia coli; test: Antimicrobial activity against Escherichia coli C600 transconjugant WH77T expressing IMP-4, TEM-1, CTX-M-3, qnrS1 by CLSI method
[9] = tested on: Enterobacter cloacae; test: Antimicrobial activity against carbapenem-resistant Enterobacter cloacae SZ92 deficient in IMP-4, TEM-1, CTX-M-14, DHA-1, qnrB10/B4-like, aac(6')-Ib, ompC by CLSI method; assay type: functional
[10] = tested on: Escherichia coli; test: Antimicrobial activity against carbapenem-resistant Escherichia coli ZJ86 expressing KPC-2, TEM-1 with ompC loss by CLSI method
[11] = tested on: Klebsiella pneumoniae; test: Antimicrobial activity against carbapenem-resistant Klebsiella pneumoniae FZ49 deficient in IMP-8, TEM-1, SHV-11, CTX-M-14, qnrB2, aac(6')-Ib, ompK35/36 by CLSI method; assay type: functional
[12] = tested on: Citrobacter freundii; test: Antimicrobial activity against Citrobacter freundii SZ63 expressing IMP-4, qnrS1by CLSI method; assay type: functional
[13] = tested on: Escherichia coli; test: Antimicrobial activity against Escherichia coli C600 transconjugant XJ81T expressing TEM-1, SHV-12, aac(6')-Ib by CLSI method
[14] = tested on: Klebsiella pneumoniae; test: Antimicrobial activity against carbapenem-resistant Klebsiella pneumoniae GZ84 deficient in SHV-11, aac(6')-Ib-cr, ompK35 by CLSI method; assay type: functional
[15] = tested on: Klebsiella pneumoniae; test: Antimicrobial activity against Klebsiella pneumoniae ZJ68T expressing CTX-M-15 by CLSI method; assay type: functional
[16] = tested on: Escherichia coli; test: Antimicrobial activity against Escherichia coli C600 transconjugant SZ62T expressing IMP-4, qnrS1by CLSI method
[17] = tested on: Klebsiella pneumoniae; test: Antimicrobial activity against carbapenem-resistant Klebsiella pneumoniae PU3 deficient in DHA-1, aac(6')-Ib-cr, ompK35/36 by CLSI method; assay type: functional
[18] = tested on: Escherichia coli; test: Antimicrobial activity against Escherichia coli PU102T expressing TEM-1, CTX-M-14, CMY-2 by CLSI method; assay type: functional
[19] = tested on: Klebsiella pneumoniae; test: Antimicrobial activity against Klebsiella pneumoniae ZJ71T expressing KPC-2 by CLSI method; assay type: functional
[20] = tested on: Klebsiella pneumoniae; test: Antimicrobial activity against Klebsiella pneumoniae GZ64T expressing IMP-4 by CLSI method; assay type: functional
[21] = tested on: Escherichia coli; test: Antimicrobial activity against Escherichia coli ZJ86T expressing KPC-2 by CLSI method; assay type: functional
[22] = tested on: Klebsiella pneumoniae; test: Antimicrobial activity against carbapenem-resistant Klebsiella pneumoniae ZJ71 deficient in KPC-2, TEM-1, SHV-11, CTX-M-14, ompK35 by CLSI method; assay type: functional
[23] = tested on: Enterobacter cloacae; test: Antimicrobial activity against carbapenem-resistant Enterobacter cloacae NJ88 deficient in CTX-M-14, ompC/F by CLSI method; assay type: functional
[24] = tested on: Escherichia coli; test: Antimicrobial activity against carbapenem-resistant Escherichia coli PU43 deficient in TEM-1, CTX-M-14, aac(6')-Ib, ompC/F by CLSI method; assay type: functional
[25] = tested on: Klebsiella pneumoniae; test: Antimicrobial activity against Klebsiella pneumoniae ZJ18T expressing KPC-2, DHA-1 by CLSI method; assay type: functional
[26] = tested on: Enterobacter cloacae; test: Antimicrobial activity against carbapenem-resistant Enterobacter cloacae NJ91 deficient in CTX-M-14, ompC/F by CLSI method; assay type: functional
[27] = tested on: Klebsiella pneumoniae; test: Antimicrobial activity against Klebsiella pneumoniae PU104T expressing TEM-1, CTX-M-15 by CLSI method; assay type: functional
[28] = tested on: Klebsiella pneumoniae; test: Antimicrobial activity against carbapenem-resistant Klebsiella pneumoniae GZ66 deficient in SHV-11, DHA-1, ompK35/36 by CLSI method; assay type: functional
[29] = tested on: Klebsiella aerogenes; test: Antimicrobial activity against Enterobacter aerogenes PU41T expressing CTX-M-14, DHA-1, qnrS1 by CLSI method; assay type: functional
[30] = tested on: Enterobacter cloacae; test: Antimicrobial activity against carbapenem-resistant Enterobacter cloacae WH103 deficient in IMP-4, TEM-1, CTX-M-3, qnrS1, ompC by CLSI method; assay type: functional
[31] = tested on: Escherichia coli; test: Antimicrobial activity against carbapenem-resistant Escherichia coli PU101 deficient in TEM-1, CTX-M-14, CMY-2, ompC by CLSI method; assay type: functional
[32] = tested on: Escherichia coli; test: Antimicrobial activity against carbapenem-resistant Escherichia coli HX74 deficient in TEM-1, CTX-M-14, CTX-M-3, aac(6')-Ibcr, ompC/F by CLSI method; assay type: functional
[33] = tested on: Klebsiella pneumoniae; test: Antimicrobial activity against carbapenem-resistant Klebsiella pneumoniae XJ81 deficient in TEM-1, SHV-12, DHA-1, aac(6')-Ib, ompK35/36 by CLSI method; assay type: functional
[34] = tested on: Klebsiella aerogenes; test: Antimicrobial activity against carbapenem-resistant Enterobacter aerogenes PU41 deficient in CTX-M-14, DHA-1, qnrS1, ompC DEc, ompF by CLSI method; assay type: functional
[35] = tested on: Klebsiella pneumoniae; test: Antimicrobial activity against carbapenem-resistant Klebsiella pneumoniae FZ47 deficient in IMP-8, TEM-1, SHV-11, CTX-M-14, qnrB2, aac(6')-Ib, ompK35/36 by CLSI method; assay type: functional
[36] = tested on: Klebsiella pneumoniae; test: Antimicrobial activity against Klebsiella pneumoniae FZ49T expressing IMP-8, TEM-1, CTX-M-14, qnrB2, aac(6')-Ib by CLSI method; assay type: functional
[37] = tested on: Klebsiella pneumoniae; test: Antimicrobial activity against Klebsiella pneumoniae CY1T expressing SHV-11, DHA-1 by CLSI method; assay type: functional
[38] = tested on: Klebsiella pneumoniae; test: Antimicrobial activity against Klebsiella pneumoniae ZJ99 expressing KPC-2, CTX-M-3, qnrS1, ompK35 DE by CLSI method; assay type: functional
[39] = tested on: Citrobacter freundii; test: Antimicrobial activity against Citrobacter freundii SZ62 expressing IMP-4, TEM-1, CMY-2, qnrS1, aac(6')-Ib-cr by CLSI method; assay type: functional
[40] = tested on: Klebsiella pneumoniae; test: Antimicrobial activity against carbapenem-resistant Klebsiella pneumoniae CY1 deficient in SHV-11, DHA-1, ompK35/36 by CLSI method; assay type: functional
[41] = tested on: Klebsiella pneumoniae; test: Antimicrobial activity against Klebsiella pneumoniae ZJ99T expressing KPC-2, CTX-M-3, qnrS1 by CLSI method; assay type: functional

Measured: MIC

CO/N=C(\C(=O)N[C@@H]1C(=O)N2C(C(=O)O)=C(COC(C)=O)CS[C@H]12)c1csc(N)n1 [CEFOTAXIME]
8 µg/mL: [25]
> 256 µg/mL: [2] | [3] | [9] | [11] | [12] | [15] | [23] | [24] | [26] | [30] | [31] | [32] | [33] | [34]
256 µg/mL: [5] | [8] | [14] | [18] | [22] | [27] | [35] | [39] | [41]
32 µg/mL: [6] | [21]
128 µg/mL: [4] | [7] | [16] | [17] | [20] | [28] | [29] | [36] | [38] | [40]
16 µg/mL: [19]
4 µg/mL: [13] | [37]
64 µg/mL: [1] | [10]

CN(C)c1cc(NC(=O)CNC(C)(C)C)c(O)c2c1C[C@H]1C[C@H]3[C@H](N(C)C)C(O)=C(C(N)=O)C(=O)[C@@]3(O)C(O)=C1C2=O [TIGECYCLINE]
0.5 µg/mL: [1] | [3] | [5] | [11] | [14] | [23] | [26] | [28] | [33]
1 µg/mL: [7] | [9] | [12] | [30] | [34] | [35] | [37] | [38] | [39]
16 µg/mL: [40]
0.25 µg/mL: [2] | [6] | [10] | [17] | [18] | [21] | [24] | [27] | [41]
0.06 µg/mL: [8] | [20] | [25] | [36]
0.13 µg/mL: [16] | [19] | [22]
4 µg/mL: [4]
0.064 µg/mL: [13] | [15] | [29] | [31] | [32]
